From PMC3366986, “On the Mechanism of Action of SJ-172550 in Inhibiting the Interaction of MDM4 and p53” (PLoS ONE, 2012)
≈ marks a conversion by molar mass, not a printed value.

Assays:
[1] = target: T1, hMDMX (GST-tagged, a.a. 1–185) (Homo sapiens, UniProt O15151); assay: fluorescence polarization competition assay, MDMX-p53 peptide binding; conditions: for IC50: Figure 3, read-out: IC50, inhibition of MDMX-p53 peptide binding
T1 construct: hMDMX (GST-tagged, a.a. 1–185); made in house; host or cells: E. coli BL21(DE3)
T1 sequence (O15151 1-185): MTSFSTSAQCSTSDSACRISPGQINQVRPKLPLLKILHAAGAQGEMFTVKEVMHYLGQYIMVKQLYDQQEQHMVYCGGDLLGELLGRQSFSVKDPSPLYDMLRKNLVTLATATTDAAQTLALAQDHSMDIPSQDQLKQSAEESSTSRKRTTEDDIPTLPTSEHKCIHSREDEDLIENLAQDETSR
Experimental: All fluorescence polarization assays were performed in binding buffer (10 mM Tris, pH 8.0, 170 mM NaCl, 0.05% Tween-20) unless otherwise noted. For competition assays a master mix of 15 nM Texas red-labeled (N-terminal label) P53 Peptide (sequence: […]) with 1 µM hMDMX (GST-tagged, a.a. 1–185) was prepared and 20 µl was added to black polystyrene 384 well plates (Corning #3573). DMSO stock solutions of test compounds were then added by pin transfer (V&P scientific) in nano-liter volumes (maximum final DMSO percentage = 1%). The assay mixture was incubated at room temperature for one hour and read on an EnVision multi-label plate reader using a 555 nm excitation filter, a 632 nm emission filter, and a Texas Red FP dichroic mirror. Binding inhibition curves and IC50 values were determined by fitting observed mP values to a 4-parameter sigmoidal binding curve using PRISM 5.0 (GraphPad Software, Inc.).

MDMX (23–111) = target: T2, MDMX (23–111) (Homo sapiens, UniProt O15151); assay: thermal stability of MDMX by hydrophobic dye binding (thermal shift); conditions: for effect of reducing agent used alone on thermal stability of MDMX: without compound 1
T2 construct: Thermal shift data for MDMX (23–111) showing a 7 degree stabilization; made in house; host or cells: E. coli BL21(DE3)
T2 sequence (O15151 23-111): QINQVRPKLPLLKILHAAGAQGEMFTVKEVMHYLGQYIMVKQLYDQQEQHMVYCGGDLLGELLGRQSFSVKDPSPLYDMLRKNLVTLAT
Experimental: The ITD measurements were performed with a RT-PCR instrument (Applied Biosystems 7900HT) equipped with a 384-well probe using SYBR detection (excitation 495/emission 537). The program used started at 45°C and the temperature increased at a rate of 1 degree per minute. […] The final volume was 20 µl for each well using 384 ABI PRISM™ plates (Applied Biosystems). The data was exported and evaluated using a custom data processing algorithm coded in Pipeline Pilot (Scitegic). Apparent melting temperatures were calculated by measuring the temperature at which the observed fluorescence signal was halfway between the baseline and the maximum. Binding curves were determined by graphing observed apparent melting temperature as a function of test compound concentrations. These curves were then fit to a four parameter sigmoidal dose response model using PRISM 5.0 (GraphPad Software, Inc.).

hMDM2(18–125)C77V = target: T3, hMDM2(18–125)C77V (Homo sapiens, UniProt Q00987, C77V); assay: inhibition of p53 peptide binding to MDM2 cysteine mutant; conditions: hMDM2(18–125)C77V relative to MDM2; Figure S6
T3 construct: a mutant of MDM2 protein (hMDM2(18–125)C77V) lacking the cysteine

GST-hMDMX = target: T4, GST-hMDMX (Homo sapiens, UniProt O15151); assay: mass spectrometry of covalent adducts, GST-tagged hMDMX
T4 construct: made in house; host or cells: E. coli BL21(DE3)
T4 sequence (O15151 1-185): T1 sequence (O15151 1-185)
Experimental: (§1) Samples were prepared in binding buffer (10 mM Tris, pH 8.0, 170 mM NaCl) with a 50 µl final volume. Samples were incubated at room temperature for 1.5 hours after which they were stored overnight at 4°C before analysis by mass spectrometry. Samples containing 1 µM hMDMX constructs were concentrated to 20 µM using 3000 MWCO centrifugal protein concentrators (Vivascience, Inc.) immediately prior to analysis. Prior to injection all samples were desalted using a reverse phase C8 Zip Tip (Millipore) and eluted in 50% acetonitrile, 2% formic acid. The samples were ionized by static nanospray using EconoTips (New Objective) on a Waters LCT Premier XE mass spectrometer using positive mode. The resultant charge envelope was deconvoluted using MaxEnt 1 algorithm of MassLynx V 4.0 sp 4 software. A mass error of 1Da for every 10,000 Da is permissible using this mass spectrometer.

[2] = target: T5, hMDMX (untagged aa 23 to 111 construct) (Homo sapiens, UniProt O15151); assay: mass spectrometry of covalent adducts, untagged hMDMX
T5 construct: hMDMX (untagged aa 23 to 111 construct); His-tag (cleaved yes); made in house; host or cells: E. coli BL21(DE3)
T5 sequence (O15151 23-111): T2 sequence (O15151 23-111)
Experimental: as §1

MDMX [3] = target: T6, MDMX (Homo sapiens, UniProt O15151); assay: fluorescence polarization p53 peptide exclusion assay, Mdmx; type: binding; conditions: ND = compound does not noticeably block interaction with p53 peptide
T6 sequence (O15151 1-490): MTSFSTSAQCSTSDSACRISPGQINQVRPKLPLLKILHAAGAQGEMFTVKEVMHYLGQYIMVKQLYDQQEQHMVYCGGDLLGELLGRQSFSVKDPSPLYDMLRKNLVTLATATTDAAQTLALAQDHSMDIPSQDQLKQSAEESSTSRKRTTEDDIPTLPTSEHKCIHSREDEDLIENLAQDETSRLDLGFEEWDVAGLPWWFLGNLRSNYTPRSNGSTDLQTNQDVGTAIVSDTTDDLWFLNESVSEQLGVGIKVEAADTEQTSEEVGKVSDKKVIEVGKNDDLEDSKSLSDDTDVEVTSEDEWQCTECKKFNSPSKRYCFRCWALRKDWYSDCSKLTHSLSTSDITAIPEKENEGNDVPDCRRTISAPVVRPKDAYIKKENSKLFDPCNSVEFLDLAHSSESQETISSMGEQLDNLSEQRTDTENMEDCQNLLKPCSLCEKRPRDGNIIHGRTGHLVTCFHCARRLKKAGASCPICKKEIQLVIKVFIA
Source text: (§2) the α,β-unsaturated amide towards Mdm2 and Mdmx as determined using fluorescence
(§3) polarization p53 peptide exclusion assay. Compound core according to J. Biol. Chem. 2010;
(§4) 285: 10786 is marked in blue.
(§5) Compound Chemical formula Compound code Mdm2 MdmX […]

hMDMX (aa 23–111) = target: T7, hMDMX (aa 23–111) (Homo sapiens, UniProt O15151); assay: SPR binding of compound 1 to immobilized hMDMX; conditions: 100 µM
T7 construct: hMDMX (23–111) was immobilized to the SPR chips using a biotin tag; made in house
T7 sequence (O15151 23-111): T2 sequence (O15151 23-111)
Experimental: Binding studies were performed at 25°C using a Biacore T100 (GE Healthcare) surface plasmon resonance (SPR) instrument. Either streptavidin or NeutrAvidin (Thermo Scientific) was immobilized on a carboxymethyldextran-coated gold surface (CM5 chip; GE Healthcare) by standard amine coupling methods. The carboxymethyl groups of dextran were activated with N-ethyl-N ´-(3-dimethylaminopropyl) carbodiimide (EDC) and N-hydroxysuccinimide (NHS). For peptide experiments, streptavidin was attached at pH 4.5 in 10 mM sodium acetate to levels of ∼3000 RU per flow cell. For small molecule experiments, NeutrAvidin was attached at pH 5.0 in 10 mM sodium acetate to levels of ∼11000–12000 RU per flow cell. Any remaining reactive sites were blocked by reaction with ethanolamine. Biotin-MDM4 was captured on the chip by injection over the streptavidin or NeutrAvidin surface.
For peptide binding experiments, p53wt peptide was prepared as a 3-fold serial dilution in peptide binding buffer (20 mM Bis-Tris pH 6.5, 200 mM NaCl, 0.1 mg/mL bovine serum albumin, 0.005% Tween20, +/−1 mM TCEP). The peptide was injected in triplicate at each concentration at a flow rate of 75 µL/min. […] Equilibrium dissociation constants (K d) for peptide binding were determined by equilibrium affinity analysis with a 1∶1 binding model using Scrubber2.

C77A mutant of MDM2 = C77A mutant of MDM2 (Homo sapiens, UniProt Q00987, C77A); assay: covalent labelling of MDM2 C77A mutant; conditions: C77A mutation; Figure S6
Mdm2 = Mdm2 (Homo sapiens, UniProt Q00987); assay: fluorescence polarization p53 peptide exclusion assay, Mdm2; type: binding; conditions: ND = compound does not noticeably block interaction with p53 peptide
Source text: as §2, §3, §4, §5

[4] = solubility assay (µSOL Evolution, pION); type: physicochemical; conditions: system solution buffer (SSB, pION), pH 7.4, aqueous buffer, kinetic from dmso stock
Experimental: Solubility assay was carried out on Biomek FX lab automation workstation (Beckman Coulter, Inc., Fullerton, CA) using µSOL Evolution software (pION Inc., Woburn, MA). The detailed method is described as following. 10 µL of 10 mM compound stock (in DMSO) was added to 190 µL 1-propanol to make a reference stock plate. 5 µL from this reference stock plate was mixed with 70 µL 1-propanol and 75 µL SSB (system solution buffer, pH adjusted to 7.4, pION Inc., Woburn, MA) to make the reference plate, and the UV spectrum (250 nm –500 nm) of the reference plate was read. 6 µL of 10 mM test compound stock was added to 594 µL SSB in a 96-well storage plate and mixed. The storage plate was sealed and incubated at room temperature for 18 hours. The suspension was then filtered through a 96-well filter plate (pION Inc., Woburn, MA). 75 µL filtrate was mixed with 75 µL 1-propanol to make the sample plate, and the UV spectrum of the sample plate was read. Calculation was carried out by µSOL Evolution software based on the AUC (area under curve) of UV spectrum of the sample plate and the reference plate. All compounds were tested in triplicates.

MDMX [5] = target: T6, MDMX; set-up: method as in PMID 20080970; conditions: inhibition of the MDMX-p53 interaction; read-out: EC50, competition for wild type p53 peptide binding to MDMX; cited from earlier work
retinoblastoma cells = tested on: retinoblastoma cells; set-up: method as in PMID 20080970; conditions: cited from earlier work

T3 sequence (Q00987 18-125 C77V): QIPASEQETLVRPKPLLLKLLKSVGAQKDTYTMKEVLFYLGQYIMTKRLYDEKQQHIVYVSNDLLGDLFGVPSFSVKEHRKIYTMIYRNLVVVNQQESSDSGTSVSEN
Sequence of C77A mutant of MDM2 (Q00987 whole entry C77A): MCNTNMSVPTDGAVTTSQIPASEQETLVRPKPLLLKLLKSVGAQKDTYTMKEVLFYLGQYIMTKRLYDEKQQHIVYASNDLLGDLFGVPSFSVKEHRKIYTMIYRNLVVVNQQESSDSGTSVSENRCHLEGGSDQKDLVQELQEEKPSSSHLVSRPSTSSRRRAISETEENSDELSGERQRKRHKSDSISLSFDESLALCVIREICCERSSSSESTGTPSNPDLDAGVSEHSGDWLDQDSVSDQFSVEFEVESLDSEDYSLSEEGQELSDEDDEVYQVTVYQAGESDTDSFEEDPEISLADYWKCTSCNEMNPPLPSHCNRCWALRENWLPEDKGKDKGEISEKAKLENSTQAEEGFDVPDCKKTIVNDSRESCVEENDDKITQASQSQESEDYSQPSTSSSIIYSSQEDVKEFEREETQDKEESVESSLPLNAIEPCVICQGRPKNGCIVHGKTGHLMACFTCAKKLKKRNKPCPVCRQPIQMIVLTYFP
Sequence of Mdm2 (Q00987 whole entry): as the sequence (Q00987 whole entry C77A) above, with A77C counted along it

O=C(O)c1cc(SSc2ccc([N+](=O)[O-])c(C(=O)O)c2)ccc1[N+](=O)[O-] [DTNB, reference compound]
ability of treated MDMX to bind p53 peptide ([1]; MDMX treated with Ellman's reagent, Figure S3): unable to bind p53 peptide | effect on melting point of MDMX (MDMX (23–111); MDMX treated with Ellman's reagent, Figure S4): partially stabilized

CCOc1cc(/C=C2\C(=O)N(c3ccccc3)N=C2C)cc(Cl)c1OCC(=O)OC [compound 1]
IC50 [1]: 3 µM | reduction of potency after reaction with glutathione in situ ([1]; Figure S5, efficacy not completely removed): 10 fold | weaker potency on cysteine-lacking mutant than on MDM2 (hMDM2(18–125)C77V): 10 fold | covalent adduct formation (mass spectrum) (GST-hMDMX; 1 µM GST-hMDMX, 5 µM compound): no alkylation events | covalent adduct formation (mass spectrum) (GST-hMDMX; 20 µM GST-hMDMX, 100 µM compound): multiple alkylation events | covalent adduct formation (mass spectrum) ([2]; 1 µM hMDMX, 5 µM compound): no alkylation | covalent adduct formation (mass spectrum) ([2]; 20 µM hMDMX, 100 µM compound): partial alkylation | Ki (MDMX [3]): 8.07 µM | time to return to baseline after the pulse (off rate) (hMDMX (aa 23–111); non-reducing conditions): ~5 min | SPR binding (hMDMX (aa 23–111); reducing conditions (TCEP)): no binding was observed | ability to covalently label MDM2 (C77A mutant of MDM2): abolishes | Ki (Mdm2): 5.21 µM | stabilization of the protein's melting point (MDMX (23–111); addition of compound 1): 7 degree | EC50 (MDMX (23–111); minimal time dependency (5 min vs 1 h), read-out: apparent EC50 of melting point stabilization): ~1000 nM | solubility at 18 h [4]: 12 µM (≈ 5.15 µg/mL) | EC50 (MDMX [5]): ~5 µM | p53 dependent cell death of retinoblastoma cells (retinoblastoma cells): caused p53 dependent cell death of retinoblastoma cells

O[C@@H](CS)[C@@H](O)CS [DTT]
effect of reducing agent used alone on thermal stability of MDMX (MDMX (23–111)): no apparent effect

CCOc1cc(CC2C(=O)N(c3ccccc3)N=C2C)cc(Cl)c1OCC(=O)OC (centres unmarked) [compound 2]
IC50 [1]: > 100 µM | reduction of inhibitory potency by saturation of the ene-amide group ([1]; compound 2 relative to compound 1): roughly 30 fold

O=C(O)CCP(CCC(=O)O)CCC(=O)O [TCEP]
effect of reducing agent used alone on thermal stability of MDMX (MDMX (23–111)): destabilized the protein at high concentrations
